Measured values as given in patent publication US4219657A, “Dibenzothiophenes” (Hoffmann-La Roche Inc., priority 1977, dated 1980).

What was measured:
[1] = test system: Albino rats of Hart Strain; experiment: anti-inflammatory activity, volume of edema after Mycobacterium butyricum adjuvant injected into the right hind foot; assay type: in vivo; details: Rattus norvegicus, po, dosage of 0.03 gm. p.o., treated daily for 5 consecutive days, edema 96 hours after adjuvant, read-out: ED30 (dose required to produce a 30% reduction in edema)
Protocol: The test animals are given 10 mls. of vehicle^1, which contains the test compound per kg. of body weight. The animals are treated daily for 5 consecutive days. Three hours after the first treatment, 0.05 ml. of an 0.5% suspension of heat killed dessiccated Mycobacterium butyricum in U.S.P. olive oil, which has been steam sterilized for 30 minutes, is injected into the right hind foot of each rat. The paw volume is measured immediately after the injection of the adjuvant and again 96 hours later. The difference is recorded as volume of edema. The paw volume is measured by immersion of the paw into a column of mercury to an ink mark exactly at the level of the lateral malleolus. Percent inhibition is calculated by dividing the average control edema minus the average treatment edema by the average control edema times 100. The percent inhibition is plotted against dose on semi-logarithmic probability paper and the dose required to produce a 30% reduction in edema is estimated therefrom and is expressed as ED30.
^1 Hilgar, A. G. and Hummel, D. J.: Endocrine Bioassay Data. No. 1, p. 15, August 1964 (Cancer Chemotherapy National Service Center, N.I.H.)

[2] = test system: mice; experiment: analgesic activity, reaction time of mice on a hot plate; assay type: in vivo; details: Mus musculus; male mice; oral; hot plate 55±0.5° C.; combined reaction time average at 30, 60 and 90 minutes
Protocol: The method determines the reaction time of mice dropped onto a hot plate maintained at 55±0.5° C. Six groups of male mice (5 mice/group) weighing between 20-30 grams are utilized. The initial reaction time of these mice is determined once, and the reaction time of each group is then averaged. The mice are then administered the vehicle and/or the compound to be tested by the oral, intraperitoneal or subcutaneous route. The average reaction time of each group is determined again at 30, 60 and 90 minutes after compound administration and is compared to controls. Reaction time is recorded as percent changes from control. All groups are averaged before and after treatment. A combined reaction time average (recorded as percent change of reaction time threshhold from controls) for all three periods is plotted against does on graph paper, and a curve is drawn. The ED50 is read from this curve.

O=C(O)Cc1ccc2c(c1)sc1ccc(Cl)cc12 [8-chloro-dibenzothiophene-3-acetic acid]
ED30 [1]: 1.8 mg/kg/day | ED50 [2]: 120 mg/kg
